Measurements published in patent US9637477B2, “Therapeutic substituted pyrroles” (Allergan, Inc., priority 2014, dated 2017).

Experiments:
EP2 [1] = target: T1, EP2 (Homo sapiens, UniProt P43116); test: EP2 cAMP assay; format: cell-based
Source text: (§1) US 2007/0129552, incorporated by reference herein in its entirety, describes the methods used to obtain the in vitro data in the table below.

EP4 [2] = target: T2, EP4 (Homo sapiens, UniProt P35408); test: EP4 binding (Ki)
Source text: as §1

EP2 [3] = target: T1, EP2; test: EP2 binding (Ki)
Source text: as §1

EP2 [4] = target: T1, EP2; test: EP2 flipr functional assay; format: cell-based
Source text: as §1

EP4 [5] = target: T2, EP4; test: EP4 flipr functional assay; format: cell-based
Source text: as §1

T1 sequence (P43116 whole entry): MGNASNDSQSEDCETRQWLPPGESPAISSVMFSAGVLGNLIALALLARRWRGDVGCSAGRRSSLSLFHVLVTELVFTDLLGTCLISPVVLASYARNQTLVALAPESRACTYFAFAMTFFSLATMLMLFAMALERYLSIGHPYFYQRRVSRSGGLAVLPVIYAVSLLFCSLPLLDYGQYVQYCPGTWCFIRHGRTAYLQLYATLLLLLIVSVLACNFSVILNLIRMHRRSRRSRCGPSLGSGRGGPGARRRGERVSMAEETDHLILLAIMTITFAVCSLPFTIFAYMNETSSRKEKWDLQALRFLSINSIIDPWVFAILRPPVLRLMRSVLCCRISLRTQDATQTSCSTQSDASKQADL
T2 sequence (P35408 whole entry): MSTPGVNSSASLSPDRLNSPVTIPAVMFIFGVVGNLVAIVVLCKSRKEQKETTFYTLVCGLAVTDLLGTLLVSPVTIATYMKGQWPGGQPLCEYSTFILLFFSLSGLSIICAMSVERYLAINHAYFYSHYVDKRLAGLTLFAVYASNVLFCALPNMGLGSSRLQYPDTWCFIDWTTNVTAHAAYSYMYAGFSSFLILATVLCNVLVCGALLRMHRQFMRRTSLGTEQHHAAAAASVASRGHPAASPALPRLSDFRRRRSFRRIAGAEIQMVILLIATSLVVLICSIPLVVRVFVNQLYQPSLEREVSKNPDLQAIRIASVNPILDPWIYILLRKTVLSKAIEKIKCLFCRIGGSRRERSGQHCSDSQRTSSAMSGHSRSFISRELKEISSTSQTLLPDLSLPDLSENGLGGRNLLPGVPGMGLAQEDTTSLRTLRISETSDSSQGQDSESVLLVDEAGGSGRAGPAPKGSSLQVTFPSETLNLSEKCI

Work on `CCCCCCc1ccc(-c2cccn2CCCc2ccc(C(=O)O)s2)cc1` [Example 1, 5-(3-(2-(4-hexylphenyl)-1H-pyrrol-1-yl)propyl)thiophene-2-carboxylic acid] yielded an EC50 (EP2 [1]) of 3 nM, a Ki (EP4 [2]) of 2660 nM and a Ki (EP2 [3]) of 23 nM. For the same compound, the EC50 (EP2 [4]) was 998 nM and the EC50 (EP4 [5]) was > 10000 nM.
